Results taken from paper PMC3401907, “Cellular Uptakes, Biostabilities and Anti-miR-210 Activities of Chiral Arginine-PNAs in Leukaemic K562 Cells” (Chembiochem, 2012).

What was measured:
[1] = tested on: DNA2 (mismatched DNA, G→T); test: Melting temperature (Tm) of PNA:DNA duplexes, single-mismatch DNA; format: binding
Description: Sequence selectivity is a very important issue in view of the use of PNAs in cellular systems, because partial hybridisation might occur with other unrelated miRNAs or, most importantly, with mRNA targets. We analysed the sequence selectivities of our PNAs with stricter models (DNA2 and RNA2) involving single base mismatches (G→T or G→U) located in the middle of the target sequences. In each case the sequence selectivity was confirmed by significant lowering of the melting temperature. The ranges of ΔTm due to the presence of these single mismatches were 8–21 °C for DNA, with the maximum drop in the case of PNA4 and the minimum observed in that of PNA6. For the latter it should be considered that the mismatch was facing the last chiral monomer, preventing the cooperative effect observed in the case of 2D-modifed highly constrained PNA.[22]
Measurements of Tm values: The Tm values were determined with a Lambda Bio 20 spectrophotometer and a Peltier PTP6 temperature programmer. Thermal denaturation profiles were measured by monitoring the absorbance at 260 nm from 18 to 90 °C with a heating rate of 1 °C min^−1 and recording every 0.1 °C. Measurement conditions: [PNA]=[DNA] or [RNA]=5 μM in PBS buffer [pH 7.0, NaCl (100 mM), NaH2PO4⋅H2O (10 mM), EDTA (0.1 mM)] with urea (5 M).

[2] = tested on: let-7c, miR-10a, miR-93, miR-99b, miR-126, miR-149, miR-424, miR-494, miR-483-5p and miR-625; test: Content of other microRNAs by RT-PCR (sequence specificity); format: cell-based, human; settings: n=3
Method: Figure 5 A), B) Effects of treatment with PNA1, PNA2, PNA3, PNA4, PNA5 and PNA6 molecules on miR-210 contents in cells cultured for 24 h A) in the absence (□), and B) in the presence (▪) of MTH (15 nM). Data are reported as arbitrary units relative to cells treated with pept-1 (□) or with pept-1 and MTH (▪). C) Effects of treatment with PNA4 on miRNA contents in cells cultured for 24 h in the presence of MTH; RT-PCR was performed with a TaqMan MicroRNA Reverse Transcription Kit (Applied Biosystems) for let-7c, miR-10a, miR-93, miR-99b, miR-126, miR-149, miR-424, miR-483-5p and miR-625. Data are reported as arbitrary units relative to untreated cells (average ±SD; n=3).
Real-time quantitative PCR: For microRNA quantification with real-time RT-PCR reagents, the primers and probes were obtained from Applied Biosystems. […] Relative expression was calculated by the comparative cycle threshold method and U6 microRNA was used as reference gene to normalise all RNA samples, because it is constant in the assayed samples by miR-profiling and quantitative RT-PCR analysis as previously reported.[25]

γ-globin gene expression = γ-globin gene expression by RT-qPCR; format: cell-based, human; settings: mithramycin-treated (15 nM) K562 cells, PNA 2 μM single administration, 72 h, n=3
Method: The strong inhibition of miR-210 by PNA2 and PNA4 might thus result in appreciable reduction of γ-globin gene expression.
Figure 6 A) Effects of pept-1, PNA1, PNA2 and PNA4 molecules (each 2 μM) on γ-globin content in K562 cell cultures for 72 h with MTH (15 nM). Data are reported as arbitrary units relative to cells treated with pept-1 and MTH (average±SD, n=3, *: p<0.05, **: p<0.01). B), C) Effects of treatment (72 h) with pept-1, PNA1, PNA2 and PNA4 molecules on K562 cells induced to erythroid differentiation by MTH (15 nM): B) summary of three independent experiments, C) a representative experiment showing staining of the cells with benzidine.
The nucleotide sequences used for real-time qPCR analysis of γ-globin mRNAs were γ-globin forward primer (5′-TGGCAA GAAGGT GCTGAC TTC-3′), γ-globin reverse primer (5′-TCACTC AGCTGG GCAAAG G-3′) and γ-globin probe (5′-FAM-TGGGAG ATGCCA TAAAGC ACCTGG-TAMRA-3′).[25] The relative expression was calculated by the comparative cycle threshold method with endogenous control human 18S rRNA as reference genes.[25]

H-C5LArgC5LArgG5LArgC5LArgT5LArgG5LArgT5LArgC5LArgACACGCACAG-NH2 [PNA4, 5L Arg (C5) backbone-modified 18-mer PNA, model 2, stretch of consecutive modified monomers]
ΔTm due to single mismatch, DNA ([1]; DNA1 vs DNA2 (G→T in the middle of the target), urea 5 M): 21 °C
Tm, DNA2 in urea (5 M) ([1]; single mismatch, UV absorbance at 260 nm, PBS buffer pH 7 with urea 5 M, strand concentration 5 μM): 56 °C
effect on miR-149 hybridisation signal ([2]; K562 cells 24 h in the presence of MTH, RT-PCR): inhibition of the hybridisation signal
effect on hybridisation availability of other miRs ([2]; K562 cells 24 h with MTH, let-7c, miR-10a, miR-93, miR-99b, miR-126, miR-424, miR-494, miR-483-5p, miR-625): no major effects
effect on γ-globin gene expression (γ-globin gene expression): inhibited γ-globin gene expression
